Data taken from patent US9908886B2 (Agency for Science, Technology and Research, priority 2012, dated 2018).
Entries after “also recorded” stand apart in the source; their conditions may differ. Read-outs that look alike come from different tables or passages of the source.

What was measured:
BC CD34+ CML cells = details: in vitro treatment of the cells; background section; cited from earlier work
[1] = test system: CD34+ BC-CML primary cells; details: background section; including cells carrying T315I mutation; cited from earlier work
[2] = test system: TNF production by macrophage; details: TLR agonist stimulation; literature; cited from earlier work
[3] = test system: nuclear beta-catenin in BC-CML cells; details: background section; cited from earlier work
[4] = test system: patient-derived BC cells in NSG mice; details: in vivo treatment for three consecutive weeks; CGP57380 40 mg/kg/d, dasatinib 5 mg/kg/d; background section; cited from earlier work
[5] = test system: eIF4E phosphorylation in BC GMPs; details: background section; cited from earlier work
D1.1 cells = experiment: Cell cytotoxicity assay (CellTiter-Glo); assay type: cell-based
Description: (§1) Cancer cell lines, MV-4-11 (leukemia), P116.c139 (acute T cell leukemia) and D1.1 (acute T cell leukemia), were purchased from ATCC and cultured according to supplier's recommendations. K562 cells (myelogenous leukemia) over-expressing eIF4E, were also used for the cytotoxicity assay. For cells treated for 48 hours, 5000 cells were seeded in 70 μl of growth medium in black, flat-bottom 96-well plate. For cells treated for six days, 1000 cells were seeded in 70 μl of growth medium in black, flat-bottom 96-well plate. […] 50 μl of the diluted compounds was added to the cells and incubated at 37° C. in 5% CO2. After 48 hours or six days treatment, cell viability was determined by CellTiter-Glo Luminescent Cell Viability Assay (Promega, Madison, Wis.). 120 μl of the reagent was added to the cells and luminescence was measured using Tecan Safire Reader. Data was analysed with Graphpad Prism software and the figures represented indicate the half maximal inhibitory concentration (IC50). Error bars denote standard deviation (SD).

P116.c139 cells = experiment: Cell cytotoxicity assay (CellTiter-Glo); assay type: cell-based
Description: as §1

[6] = test system: K562 cells over-expressing eIF4E; experiment: Cell cytotoxicity assay (CellTiter-Glo); assay type: cell-based; details: for change of IC50 with treatment duration, K562 cells over-expressing eIF4E: 48 hours extended to 6 days
Description: as §1

MV-4-11 cells = experiment: Cell cytotoxicity assay (CellTiter-Glo); assay type: cell-based
Description: as §1

MNK1 = MNK1 (Homo sapiens, UniProt Q9BUB5); experiment: In vitro MNK kinase assay (Caliper LabChip mobility shift); assay type: biochemical; details: enzymatic, 1.2 mM ATP; read-out: IC50 Mnk1
MNK2 = MNK2 (Homo sapiens (Human), UniProt Q9HBH9); experiment: as above; assay type: biochemical; details: enzymatic, 250 μM ATP; read-out: IC50 Mnk2
[7] = test system: eIF4E phosphorylation in K562 cells; experiment: Western blot of eIF4E phosphorylation in BC-CML cell line; assay type: cell-based; details: various concentrations, 24 h
Description: (§2) K562 cell line was obtained from the ATCC, and grown in RPMI supplemented with 10% FCS, L-glutamine, and penicillin/streptomycin.
(§3) Exponentially growing cells were plated at 2×10^5 cells/ml, and whole cell lysate processed for western blot analysis using antibodies recognizing eIF4E, phospho-eIF4E (Cell signaling Technology),

[8] = test system: nuclear beta-catenin in BC-CML cells; experiment: Immunofluorescence analysis of nuclear active beta-catenin; assay type: cell-based, human
Text: Cord Blood (CB) samples were purchased from the Singapore Cord Blood bank. CML samples were the Singapore General Hospital after signed informed consent under local IRB-approved procedures. MNCs were obtained using Ficoll separation, and CD34^+ cells selected by immunomagnetic beads (Miltenyi Biotech, Germany).
Cells (1×10^5) were cytospun onto glass slides, fixed with 4% paraformaldehye, and stained with mouse monoclonal antibodies against activated β-catenin (clone 8E7, Millipore, UK), or rabbit monoclonal antibodies against phospho-eIF4E S209 (EP2151Y, Abeam, UK). Slides were then stained with either PE-conjugated anti-mouse or FITC-conjugated anti-rabbit antibodies. Images were obtained with the use of a fluorescence microscope (Olympus IX71S1F3) at 40× magnification.

[9] = test system: BCR-ABL activity (phosphorylation of CrKl) in K562 cells; experiment: Western blot of CrKl phosphorylation in K562 cells; assay type: cell-based
Description: as §2, §3

MNK2, sequence (Q9HBH9 84-388): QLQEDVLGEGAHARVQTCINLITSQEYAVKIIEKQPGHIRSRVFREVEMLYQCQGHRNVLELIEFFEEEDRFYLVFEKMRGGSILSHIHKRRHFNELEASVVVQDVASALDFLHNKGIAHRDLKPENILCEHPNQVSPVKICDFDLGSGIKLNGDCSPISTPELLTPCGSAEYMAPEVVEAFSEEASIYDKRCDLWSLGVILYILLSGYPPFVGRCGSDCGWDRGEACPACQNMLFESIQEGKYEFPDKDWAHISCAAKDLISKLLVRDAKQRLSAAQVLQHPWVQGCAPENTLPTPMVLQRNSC

Structure (SMILES)	ability of CD34+ BC cells to serially replate for more than 8 weeks in methylcellulose [1]	serial transplantation of BC cells in NSG mice at 16 weeks [4]	eIF4E phosphorylation in BC GMPs [5]	change of IC50 with treatment duration, K562 cells over-expressing eIF4E [6]	IC50 (MNK1)	IC50 (MNK2)	eIF4E phosphorylation [7]	nuclear beta-catenin accumulation [8]	BCR-ABL activity (phosphorylation of CrKl) [9]	other results
Nc1ncnc2n[nH]c(Nc3ccc(F)cc3)c12 [CGP57380]	impaired the ability of CD34+ BC cells	prevented BC cells from serially transplanting NSG mice	inhibited eIF4E phosphorylation	–	–	–	–	–	–	ability of BC CD34+ CML cells to engraft NSG mice (BC CD34+ CML cells): retarded their ability to engraft NSG mice; production / release of TNF by macrophage [2]: inhibited by MNK kinases inhibitor CGP57380 in a dose dependant fashion; also recorded: inhibits the release of TNF alpha by macrophage; accumulation of active nuclear beta-catenin in BC GMPs [3]: preventes accumulation of active nuclear beta-catenin
CC(=O)C1=C(O)C=C2Oc3c(C(N)=O)c(O)cc(O)c3[C@]2(C)C1=O [Cercosporamide, reference compound]	–	–	–	–	–	–	–	–	–	IC50 (D1.1 cells; 48 hours, read-out: IC50 after 48 hours of treatment, D1.1): 20.2 µM; IC50 (D1.1 cells; 6 days, read-out: IC50 after 6 days of treatment, D1.1): 17.3 µM; IC50 (P116.c139 cells; 48 hours, read-out: IC50 after 48 hours of treatment, P116.c139): > 50 µM; IC50 (P116.c139 cells; 6 days, read-out: IC50 after 6 days of treatment, P116.c139): 4.9 µM; IC50 ([6]; 48 hours, read-out: IC50 after 48 hours of treatment, K562): > 50 µM; IC50 ([6]; 6 days, read-out: IC50 after 6 days of treatment, K562): 4.3 µM; IC50 (MV-4-11 cells; 48 hours, read-out: IC50 after 48 hours of treatment, MV-4-11): > 50 µM; IC50 (MV-4-11 cells; 6 days, read-out: IC50 after 6 days of treatment, MV-4-11): 4 µM
N#Cc1ccc(-c2cnc3ccc(-c4ccc(C(=O)N5CCOCC5)cc4)nn23)cc1 [Example 62, 4-(6-(4-(morpholine-4-carbonyl)phenyl)imidazo[1,2-b]pyridazin-3-yl)benzonitrile]	–	–	–	reduced by more than half	< 0.1 µM	< 0.1 µM	decrease in eIF4E phosphorylation; also recorded: prevent eIF4E phosphorylation	decrease in nuclear beta-catenin accumulation	decrease in BCR-ABL activity	–
CN1CCN(C(=O)c2ccc(-c3ccn4ncc(-c5ccc(C#N)cc5)c4n3)cc2)CC1 [Example 176, 4-(5-(4-(4-methylpiperazine-1-carbonyl)phenyl)pyrazolo[1,5-a]pyrimidin-3-yl)benzonitrile]	–	–	–	reduced by more than half	< 0.1 µM	< 0.1 µM	decrease in eIF4E phosphorylation; also recorded: prevent eIF4E phosphorylation	decrease in nuclear beta-catenin accumulation	decrease in BCR-ABL activity	–
Cc1nc(Nc2ncc(C(=O)Nc3c(C)cccc3Cl)s2)cc(N2CCN(CCO)CC2)n1 [dasatinib]	only partially impaired	not	not	–	–	–	–	–	–	–
Cc1ccc(NC(=O)c2ccc(CN3CCN(C)CC3)cc2)cc1Nc1nccc(-c2cccnc2)n1 [imatinib]	only partially impaired	–	not	–	–	–	–	–	–	–
